Calls of active or inactive are those of the source.
How the values were obtained:
[1] = biological target: Ras and Rab interactor 1/Tyrosine-protein kinase ABL1 (Homo sapiens, UniProt P00519+Q13671); type: functional;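 also: biochemical TR-FRET dose-response test measuring inhibition of binding between Rin1 and Abl proteins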
[2] = bead-based luminescence quenchers, dual-tagged ARNT – biochemical, AlphaScreen, cherry-pick, artefact control for ARNT-TACC3 interaction inhibitor project, dose response (AID 651705); type: functional;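 also: AlphaScreen bead proximity signal that flags compounds interfering with the detection technology; potency reflects signal decrease which marks the compound as an assay artifact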
[3] = biological target: Eukaryotic translation initiation factor 4E (Mus musculus, UniProt P63073); assay: blockers of eIF4G binding by eIF4E – biochemical, TR-FRET, dose response (AID 855); type: functional;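 also: potency for disrupting eIF4E binding to eIF4GI seen as loss of FRET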
[4] = system: Vero; assay: viability of Vero cells under compound – cytotoxicity control for flavivirus capping enzyme inhibitors (AID 588742); type: functional; conditions: Chlorocebus sabaeus
[5] = biological target: Induced myeloid leukemia cell differentiation protein Mcl-1 (Homo sapiens, UniProt Q07820); type: functional
[6] = biological target: T1, Acyl-homoserine lactone acylase PvdQ (Pseudomonas aeruginosa (strain LESB58), UniProt Q9I194); assay: PvdQ acylase enzyme activity blockers – biochemical, fluorescence, plate reader and imaging, cherry-picks, dose response (AID 493231)
T1 sequence (Q9I194 whole entry): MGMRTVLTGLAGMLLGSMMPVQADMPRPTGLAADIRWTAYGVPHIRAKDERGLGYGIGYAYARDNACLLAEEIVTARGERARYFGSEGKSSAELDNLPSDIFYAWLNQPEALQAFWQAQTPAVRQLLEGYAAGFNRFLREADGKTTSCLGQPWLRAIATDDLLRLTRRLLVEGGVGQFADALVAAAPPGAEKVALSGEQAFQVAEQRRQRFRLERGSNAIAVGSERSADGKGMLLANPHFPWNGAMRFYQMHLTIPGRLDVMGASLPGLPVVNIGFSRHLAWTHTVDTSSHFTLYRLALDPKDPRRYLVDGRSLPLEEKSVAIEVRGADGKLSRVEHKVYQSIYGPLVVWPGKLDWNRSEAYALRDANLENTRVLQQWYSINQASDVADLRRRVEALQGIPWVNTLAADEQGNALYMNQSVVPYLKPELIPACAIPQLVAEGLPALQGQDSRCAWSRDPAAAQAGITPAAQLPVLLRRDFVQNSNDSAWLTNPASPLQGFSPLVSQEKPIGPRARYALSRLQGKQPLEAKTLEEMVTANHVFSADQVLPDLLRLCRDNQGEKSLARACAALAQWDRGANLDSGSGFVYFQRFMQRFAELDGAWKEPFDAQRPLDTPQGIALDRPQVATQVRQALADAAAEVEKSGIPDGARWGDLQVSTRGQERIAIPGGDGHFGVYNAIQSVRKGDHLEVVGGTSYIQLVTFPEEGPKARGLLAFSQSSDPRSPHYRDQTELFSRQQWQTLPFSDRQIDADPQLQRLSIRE

[7] = biological target: T2, Protein skinhead-1 (Caenorhabditis elegans, UniProt P34707); type: functional
T2 sequence (P34707 whole entry): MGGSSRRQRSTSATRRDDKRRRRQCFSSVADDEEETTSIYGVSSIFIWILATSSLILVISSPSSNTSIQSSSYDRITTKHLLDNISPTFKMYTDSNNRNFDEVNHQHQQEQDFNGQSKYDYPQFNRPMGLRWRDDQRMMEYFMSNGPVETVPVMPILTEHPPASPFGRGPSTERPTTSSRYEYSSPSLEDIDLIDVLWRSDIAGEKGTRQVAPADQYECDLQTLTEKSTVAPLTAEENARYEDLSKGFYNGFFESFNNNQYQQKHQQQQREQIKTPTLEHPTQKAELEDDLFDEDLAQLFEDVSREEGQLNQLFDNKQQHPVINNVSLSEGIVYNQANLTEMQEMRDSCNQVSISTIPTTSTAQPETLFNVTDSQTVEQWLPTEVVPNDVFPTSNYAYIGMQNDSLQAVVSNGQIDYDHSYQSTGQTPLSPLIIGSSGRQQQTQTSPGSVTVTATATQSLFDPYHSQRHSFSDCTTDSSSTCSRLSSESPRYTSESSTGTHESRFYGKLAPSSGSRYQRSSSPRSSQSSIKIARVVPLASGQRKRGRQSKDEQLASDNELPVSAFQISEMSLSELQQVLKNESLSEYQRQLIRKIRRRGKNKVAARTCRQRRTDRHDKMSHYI

[8] = system: HeLa; assay: toxicity to human HeLa cells – cell-based, 48 h, plate reader, cherry-picks, cytotoxicity control, dose response (AID 504942); type: functional
[9] = biological target: Trypsin (Sus scrofa, UniProt P00761); assay: trypsin protease activity blockade – biochemical, quenched peptide fluorescence, cherry-pick, selectivity assay for Rce1 protease inhibitor project, dose response (AID 488789)
[10] = system: HEK293; assay: EBV LMP1 TES2 canonical NF-kB signalling blockers – cell-based, HEK293, luciferase, cherry-pick, dose response (AID 588343); type: functional; conditions: Homo sapiens
[11] = biological target: T3, Melanin-concentrating hormone receptor 1 (Homo sapiens, UniProt Q99705); assay: Late-stage fluorescence-based counterscreen for antagonists of the G-protein coupled receptor 7 (GPR7): cell-based dose response assay to identify antagonists of the melanin-concentrating hormone receptor 1 (MCHR1) Set 5.; type: functional
[12] = biological target: T4, Neuropeptides B/W receptor type 1 (Homo sapiens, UniProt P48145); assay: human NPBW1 receptor blockade, IC50 – cell-based, fluorescence, dose response, set 5, late-stage follow-up (AID 588566); type: functional
T4 sequence (P48145 whole entry): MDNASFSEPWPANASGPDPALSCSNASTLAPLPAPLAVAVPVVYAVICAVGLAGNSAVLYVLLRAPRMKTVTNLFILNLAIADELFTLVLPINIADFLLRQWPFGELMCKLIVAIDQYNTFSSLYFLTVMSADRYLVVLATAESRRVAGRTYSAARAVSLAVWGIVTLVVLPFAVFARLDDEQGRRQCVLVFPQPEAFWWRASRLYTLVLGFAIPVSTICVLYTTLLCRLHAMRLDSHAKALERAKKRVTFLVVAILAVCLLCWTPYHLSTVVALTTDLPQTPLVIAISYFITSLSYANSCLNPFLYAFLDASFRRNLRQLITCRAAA

[13] = biological target: T4, Neuropeptides B/W receptor type 1; assay: human NPBW1 receptor blockade, IC50 – cell-based, fluorescence, dose response, set 6, late-stage follow-up (AID 588583); type: functional
[14] = biological target: T3, Melanin-concentrating hormone receptor 1; assay: Late-stage fluorescence-based counterscreen for antagonists of the G-protein coupled receptor 7 (GPR7): cell-based dose response assay to identify antagonists of the melanin-concentrating hormone receptor 1 (MCHR1) Set 6.; type: functional
[15] = biological target: Platelet-activating factor acetylhydrolase (Mus musculus, UniProt Q60963); assay: Late stage assay provider results from the probe development effort to identify inhibitors of pPAFAH: fluorescence-based dose-response biochemical gel-based competitive Activity-Based Protein Profiling (ABPP) assay for SAR compounds.; type: functional
[16] = biological target: Interleukin-8 (Homo sapiens, UniProt P10145); assay: Dose Response confirmation of uHTS small molecule hits for cystic fibrosis induced NFkb Inhibitors in a PAF-induced IL8 counterscreen.; type: functional; conditions: read-out: IC50_Mean
[17] = biological target: Mitochondrial peptide methionine sulfoxide reductase (Bos taurus, UniProt P54149); type: functional;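 also: absorbance read-out, biochemical high-throughput dose-response screen for MsrA inhibitors, confirmatory; recombinant bovine MsrA coupled to E. coli TrxB with NADPH and selenocystamine; potency is for inhibitors of MsrA activity on DMSO substrate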
[18] = system: BJ; assay: cells; type: functional, cell-based; conditions: Homo sapiens
[19] = biological target: Nonstructural protein 1 (Influenza A virus, UniProt Q194T2); type: functional, Influenza A virus (A/California/07/2009(H1N1))
[20] = system: Vero; assay: cells; type: functional; conditions: Chlorocebus sabaeus
[21] = NIH3T3 cell viability loss – ATP luminescence, mouse fibroblasts, counter-screen, dose response (AID 2010); type: functional, cell-based;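 also: cells exposed to compound for about 90 hours before reading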
[22] = system: BJ; assay: BJ-TERT fibroblast viability loss – cell-based, RAS-independent, luminescence, dose response (AID 1933); type: functional; conditions: Homo sapiens
[23] = DRD fibroblast viability loss – cell-based, non-viral oncogenic, luminescence, dose response (AID 1934); type: functional; conditions: Homo sapiens
[24] = system: Streptococcus sp. 'group A'; assay: Streptococcus pyogenes SK(-)GAS viability under kanamycin – luminescence, BacTiterGlo, confirmation, counter-screen for streptokinase expression inhibitor project, dose response (AID 1900); type: functional, organism-based
[25] = Trypanosoma cruzi growth suppression in host cells – NIH3T3 host cells, beta-gal luminescence, confirmation (AID 2044); type: functional, cell-based;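 also: intracellular parasites grown in NIH/3T3 mouse fibroblasts as host cells; luminescent beta-galactosidase reporter signal from transgenic T. cruzi replicating inside host cells; inhibitors lower the luminescence signal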
[26] = system: Streptococcus; assay: GAS UMAA2166 growth inhibition – luminescence, BacTiterGlo, counter-screen for streptokinase expression inhibitor project, dose response (AID 1915); type: functional, organism-based;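 also: potency for reduction of bacterial viability or growth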
[27] = biological target: T5, Polyadenylate-binding protein 1 (Homo sapiens, UniProt P11940); assay: MLLE domain peptide-binding blockers, IC50 – biochemical, fluorescence polarization, FITC-PAM2 peptide, dose response (AID 602259); type: functional; conditions: read-out: IC50_Mean
[28] = system: BJ; assay: BJ-TERT-LT-ST fibroblast viability loss – cell-based, RAS-independent, luminescence, dose response (AID 1935); type: functional; conditions: Homo sapiens;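 also: BJ fibroblasts immortalized with TERT plus LT and ST oncogenes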
[29] = biological target: T5, Polyadenylate-binding protein 1; assay: MLLE binding blockers, Cy5 peptide tracer – biochemical, fluorescence polarization, Cy5-PAM2 peptide, secondary, miRNA deadenylation inhibitor project, dose response (AID 602260); type: functional; conditions: read-out: IC50_Mean
[30] = Counterscreen for activators of the function of SWI/SNF related, matrix associated, actin dependent regulator of chromatin, subfamily a, member 2 (SMARCA2, BRM): Luminescence-based cell-based high throughput dose response assay to identify non-selective compounds using the VP16 reporter assay.; type: functional
[31] = biological target: DNA (cytosine-5)-methyltransferase 1 (Homo sapiens, UniProt P26358); assay: inhibition of DNA methylation by DNMT1 – biochemical, fluorescent molecular beacon, confirmation (AID 602386); type: functional
[32] = biological target: SWI/SNF-related matrix-associated actin-dependent regulator of chromatin subfamily A member 2 (Homo sapiens, UniProt P51531); assay: Luminescence-based cell-based high throughput dose response assay to identify activators of the function of SWI/SNF related, matrix associated, actin dependent regulator of chromatin, subfamily a, member 2 (SMARCA2, BRM).; type: functional
[33] = biological target: Cytochrome P450 3A4 (Homo sapiens, UniProt P08684); conditions: Potency;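 also: confirmatory qHTS run detecting inhibitors and substrates of CYP3A4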

T5 sequence (P11940 whole entry, the tested form may be a part): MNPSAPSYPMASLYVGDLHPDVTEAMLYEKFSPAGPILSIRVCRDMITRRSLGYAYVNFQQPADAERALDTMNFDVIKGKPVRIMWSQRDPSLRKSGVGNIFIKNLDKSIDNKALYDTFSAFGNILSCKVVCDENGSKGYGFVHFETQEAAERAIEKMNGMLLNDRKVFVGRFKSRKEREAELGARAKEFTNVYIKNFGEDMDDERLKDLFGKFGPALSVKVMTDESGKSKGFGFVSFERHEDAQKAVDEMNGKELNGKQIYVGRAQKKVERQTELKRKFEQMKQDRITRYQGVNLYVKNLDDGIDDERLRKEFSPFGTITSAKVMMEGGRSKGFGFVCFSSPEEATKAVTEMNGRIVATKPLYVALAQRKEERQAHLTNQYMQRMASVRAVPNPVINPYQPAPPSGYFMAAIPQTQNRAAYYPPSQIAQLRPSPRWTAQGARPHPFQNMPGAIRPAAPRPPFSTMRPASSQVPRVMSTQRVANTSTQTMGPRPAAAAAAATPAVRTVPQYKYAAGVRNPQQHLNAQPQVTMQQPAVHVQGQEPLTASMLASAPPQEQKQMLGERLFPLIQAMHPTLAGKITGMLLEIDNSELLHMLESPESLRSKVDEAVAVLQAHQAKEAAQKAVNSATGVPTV
T3 sequence (Q99705 whole entry): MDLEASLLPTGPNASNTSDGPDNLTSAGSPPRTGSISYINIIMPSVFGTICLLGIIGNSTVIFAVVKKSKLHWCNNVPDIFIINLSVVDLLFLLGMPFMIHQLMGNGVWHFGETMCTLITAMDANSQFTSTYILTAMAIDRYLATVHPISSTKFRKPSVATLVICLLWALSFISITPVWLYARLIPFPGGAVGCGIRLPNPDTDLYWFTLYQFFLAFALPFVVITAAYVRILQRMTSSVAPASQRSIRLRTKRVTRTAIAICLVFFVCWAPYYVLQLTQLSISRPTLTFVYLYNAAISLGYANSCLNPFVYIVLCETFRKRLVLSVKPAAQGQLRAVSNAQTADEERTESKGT
Nonstructural protein 1, sequence (Q194T2 whole entry): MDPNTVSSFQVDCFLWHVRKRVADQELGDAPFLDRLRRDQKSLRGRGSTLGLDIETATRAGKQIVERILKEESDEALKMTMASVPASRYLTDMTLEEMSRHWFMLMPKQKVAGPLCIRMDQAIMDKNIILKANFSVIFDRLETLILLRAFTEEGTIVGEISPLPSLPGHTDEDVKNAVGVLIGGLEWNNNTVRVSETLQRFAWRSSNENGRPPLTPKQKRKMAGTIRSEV
Trypsin, sequence (P00761 whole entry): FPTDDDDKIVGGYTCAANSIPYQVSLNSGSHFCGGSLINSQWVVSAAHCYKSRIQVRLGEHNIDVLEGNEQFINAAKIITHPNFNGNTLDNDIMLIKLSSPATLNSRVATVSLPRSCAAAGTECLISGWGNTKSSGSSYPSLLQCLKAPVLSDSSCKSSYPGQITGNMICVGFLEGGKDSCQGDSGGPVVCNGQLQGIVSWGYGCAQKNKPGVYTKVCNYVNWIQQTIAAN
SWI/SNF-related matrix-associated actin-dependent regulator of chromatin subfamily A member 2, sequence (P51531 whole entry): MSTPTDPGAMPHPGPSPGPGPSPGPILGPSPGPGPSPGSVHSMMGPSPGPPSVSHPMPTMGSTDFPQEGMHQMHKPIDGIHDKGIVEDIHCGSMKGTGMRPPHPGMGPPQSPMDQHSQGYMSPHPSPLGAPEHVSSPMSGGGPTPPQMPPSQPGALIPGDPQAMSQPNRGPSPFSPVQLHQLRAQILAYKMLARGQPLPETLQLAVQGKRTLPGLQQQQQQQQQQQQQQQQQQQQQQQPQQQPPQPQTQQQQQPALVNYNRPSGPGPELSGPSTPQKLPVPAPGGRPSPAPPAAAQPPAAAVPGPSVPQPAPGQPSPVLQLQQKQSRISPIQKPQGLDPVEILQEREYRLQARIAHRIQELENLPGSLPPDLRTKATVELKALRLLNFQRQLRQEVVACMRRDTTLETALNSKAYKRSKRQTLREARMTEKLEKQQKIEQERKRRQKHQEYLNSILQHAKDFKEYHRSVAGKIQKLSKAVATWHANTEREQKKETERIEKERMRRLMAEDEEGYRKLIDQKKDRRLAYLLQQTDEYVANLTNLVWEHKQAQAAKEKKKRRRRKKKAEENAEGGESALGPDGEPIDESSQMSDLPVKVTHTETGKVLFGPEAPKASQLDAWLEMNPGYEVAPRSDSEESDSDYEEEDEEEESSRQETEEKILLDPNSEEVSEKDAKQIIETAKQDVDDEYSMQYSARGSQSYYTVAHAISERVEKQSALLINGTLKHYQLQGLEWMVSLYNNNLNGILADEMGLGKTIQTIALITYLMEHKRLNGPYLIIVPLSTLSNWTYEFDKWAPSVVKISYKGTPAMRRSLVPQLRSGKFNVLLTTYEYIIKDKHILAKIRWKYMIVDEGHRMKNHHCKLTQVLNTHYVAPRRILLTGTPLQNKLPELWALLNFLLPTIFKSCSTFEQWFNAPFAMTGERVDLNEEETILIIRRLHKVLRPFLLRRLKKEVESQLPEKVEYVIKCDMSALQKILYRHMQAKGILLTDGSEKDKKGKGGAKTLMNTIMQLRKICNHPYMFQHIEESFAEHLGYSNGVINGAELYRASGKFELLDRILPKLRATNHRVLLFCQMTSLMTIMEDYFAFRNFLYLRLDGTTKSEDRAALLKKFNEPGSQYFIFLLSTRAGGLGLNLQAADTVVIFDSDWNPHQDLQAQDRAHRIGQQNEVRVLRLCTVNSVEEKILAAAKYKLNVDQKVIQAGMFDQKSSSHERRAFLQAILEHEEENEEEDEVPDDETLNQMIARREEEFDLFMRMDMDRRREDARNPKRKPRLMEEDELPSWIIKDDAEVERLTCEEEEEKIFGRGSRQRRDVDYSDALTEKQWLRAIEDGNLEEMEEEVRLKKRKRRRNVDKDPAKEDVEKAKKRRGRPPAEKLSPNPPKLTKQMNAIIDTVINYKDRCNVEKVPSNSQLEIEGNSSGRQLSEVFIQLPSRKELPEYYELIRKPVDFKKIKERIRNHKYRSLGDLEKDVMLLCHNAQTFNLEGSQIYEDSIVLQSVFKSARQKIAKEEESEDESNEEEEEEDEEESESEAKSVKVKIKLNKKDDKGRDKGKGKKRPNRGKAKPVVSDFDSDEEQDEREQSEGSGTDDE
Ras and Rab interactor 1/Tyrosine-protein kinase ABL1, sequence (P00519 whole entry): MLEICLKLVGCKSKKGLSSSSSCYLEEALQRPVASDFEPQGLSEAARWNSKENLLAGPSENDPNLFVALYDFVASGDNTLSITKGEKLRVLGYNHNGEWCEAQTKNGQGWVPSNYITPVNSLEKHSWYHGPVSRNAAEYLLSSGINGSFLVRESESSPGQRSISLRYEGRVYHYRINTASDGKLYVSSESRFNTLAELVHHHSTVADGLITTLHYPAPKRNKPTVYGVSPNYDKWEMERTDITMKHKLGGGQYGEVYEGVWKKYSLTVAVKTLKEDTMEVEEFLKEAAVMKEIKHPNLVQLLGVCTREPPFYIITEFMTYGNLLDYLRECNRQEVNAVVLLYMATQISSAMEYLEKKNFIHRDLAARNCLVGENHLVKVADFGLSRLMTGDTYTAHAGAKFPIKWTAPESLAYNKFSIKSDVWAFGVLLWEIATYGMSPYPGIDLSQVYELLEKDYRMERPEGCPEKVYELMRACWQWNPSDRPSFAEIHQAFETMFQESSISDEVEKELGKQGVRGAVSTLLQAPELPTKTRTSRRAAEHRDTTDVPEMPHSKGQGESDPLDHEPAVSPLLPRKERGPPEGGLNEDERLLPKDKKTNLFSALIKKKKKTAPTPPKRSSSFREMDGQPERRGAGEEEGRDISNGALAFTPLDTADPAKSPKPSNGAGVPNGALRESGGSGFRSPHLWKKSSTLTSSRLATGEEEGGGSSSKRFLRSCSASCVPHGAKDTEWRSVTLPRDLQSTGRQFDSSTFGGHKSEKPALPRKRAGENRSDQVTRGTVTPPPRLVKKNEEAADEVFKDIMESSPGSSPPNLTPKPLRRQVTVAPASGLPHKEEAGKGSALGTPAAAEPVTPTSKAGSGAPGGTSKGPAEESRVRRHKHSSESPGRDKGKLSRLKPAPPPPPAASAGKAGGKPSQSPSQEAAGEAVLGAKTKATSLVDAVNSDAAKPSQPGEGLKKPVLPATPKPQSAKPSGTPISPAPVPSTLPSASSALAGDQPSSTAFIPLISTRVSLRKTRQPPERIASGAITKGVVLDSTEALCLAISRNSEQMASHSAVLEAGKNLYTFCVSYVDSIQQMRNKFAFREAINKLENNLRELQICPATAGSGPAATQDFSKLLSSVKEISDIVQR
Ras and Rab interactor 1/Tyrosine-protein kinase ABL1, sequence (Q13671 whole entry): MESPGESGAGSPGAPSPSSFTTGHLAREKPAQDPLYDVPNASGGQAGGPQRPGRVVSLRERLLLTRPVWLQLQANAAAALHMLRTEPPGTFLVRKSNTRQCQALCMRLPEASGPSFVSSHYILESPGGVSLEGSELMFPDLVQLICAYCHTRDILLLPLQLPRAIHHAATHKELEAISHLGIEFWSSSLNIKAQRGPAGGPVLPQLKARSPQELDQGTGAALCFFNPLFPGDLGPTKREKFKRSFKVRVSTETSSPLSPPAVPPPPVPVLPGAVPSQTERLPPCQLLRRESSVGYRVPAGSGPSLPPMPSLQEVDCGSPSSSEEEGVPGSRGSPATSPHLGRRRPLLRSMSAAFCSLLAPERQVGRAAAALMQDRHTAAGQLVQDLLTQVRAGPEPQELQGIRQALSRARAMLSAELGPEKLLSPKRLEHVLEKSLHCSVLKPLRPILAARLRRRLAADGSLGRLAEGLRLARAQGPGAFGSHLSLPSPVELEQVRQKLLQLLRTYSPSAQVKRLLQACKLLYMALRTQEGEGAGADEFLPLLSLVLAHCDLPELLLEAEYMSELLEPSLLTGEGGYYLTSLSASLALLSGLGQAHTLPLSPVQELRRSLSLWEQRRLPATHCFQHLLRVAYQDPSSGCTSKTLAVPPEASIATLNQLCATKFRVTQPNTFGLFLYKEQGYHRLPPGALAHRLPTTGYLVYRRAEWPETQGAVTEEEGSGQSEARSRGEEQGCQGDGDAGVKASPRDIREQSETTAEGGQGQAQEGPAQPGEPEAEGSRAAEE
Interleukin-8, sequence (P10145 whole entry): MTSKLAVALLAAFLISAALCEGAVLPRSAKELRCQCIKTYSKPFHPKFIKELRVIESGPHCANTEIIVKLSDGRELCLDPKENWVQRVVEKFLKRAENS

CCOC(=O)CCCCC(=O)c1[nH]c(O)nc1CN1CCOCC1
IC50 [1]: 0.548 µM (active)

CC(C)(C)C1=Nn2c(nnc2-c2ccccn2)SC1
AC50 [2]: 107 µM (active) | IC50 [3]: > 64 µM (inactive)

CNc1ccc(Br)cc(C(=O)/C=C/c2ccc(OC)cc2OC)c1=O
CC50 [4]: > 40 µM (active) | IC50 [5]: 2.17 µM (active)

c1ccn2cc(-c3ccc4c(c3)OCCO4)nc2c1
AC50 [6]: 4.31 µM (active) | IC50 [7]: > 100 µM (inactive) | AC50 [8]: 55.2 µM (active) | AC50 [9]: 6.17 µM (active) | AC50 [10]: 1.53 µM (active)

CCOC(=O)C(C#N)c1ccnn(Cc2cccc3ccccc23)c1=O (configuration not stated)
IC50 [11]: 15 µM (inactive) | IC50 [12]: 1.74 µM (active)

N#CC(c1ccccn1)c1c(Cl)cnn(Cc2cccc3ccccc23)c1=O (configuration not stated)
IC50 [13]: 0.564 µM (active) | IC50 [14]: 0.564 µM (active)

N#CC(c1ccsc1)c1c(Cl)cnn(Cc2cccc3ccccc23)c1=O (configuration not stated)
IC50 [11]: 0.794 µM (active) | IC50 [12]: 0.325 µM (active)

N#CC(C#N)c1c(Cl)cnn(Cc2cccc3ccccc23)c1=O
IC50 [13]: 17.4 µM (inactive) | IC50 [14]: 17.4 µM (inactive)

Cc1cc(N2CCN(C(=O)Oc3ccc(-n4cccc4)cc3)CC2)c2ccccc2n1
IC50 [15]: 0.057 µM (active)

NC(=O)c1cc2ccc(O)cc2o/c1=N\c1ccccc1
IC50 [16]: 6.71 µM (active)

C/C(=N\Nc1ccc(S(N)(=O)=O)cc1[N+](=O)[O-])c1cccnc1
IC50 [17]: 155 µM (inactive)

COc1ccc(/C(C#N)=C/c2cccnc2)cc1
AC50 [6]: 9.73 µM (active) | AC50 [8]: 254 µM (active)

CCc1ccc2c(c1)C1(NN=C(c3ccccc3)S1)C(=O)N2 (configuration not stated)
EC50 [18]: 86.3 µM (active) | IC50 [19]: 45.5 µM (active) | CC50 [20]: 14.9 µM (active) | EC50 [21]: 5.31 µM (active) | EC50 [22]: 13.7 µM (inconclusive) | EC50 [23]: 49.4 µM (active) | CC50 [4]: 7.61 µM (active) | EC50 [24]: 0.278 µM (active) | EC50 [25]: 0.524 µM (active) | EC50 [26]: 1.84 µM (active) | IC50 [27]: > 66 µM (inactive) | EC50 [28]: 17.7 µM (inconclusive) | IC50 [29]: > 66 µM (inactive)

O=C1c2ccccc2-c2cccc3cccc1c23 [BENZANTHRONE]
EC50 [30]: > 91.2 µM (inactive) | IC50 [31]: 41 µM (active) | EC50 [32]: > 91.2 µM (inactive) | AC50 [33]: 39.8 µM (inconclusive) | IC50 [27]: 34 µM (inactive) | IC50 [29]: > 66 µM (inactive)

— ChEMBL document CHEMBL1201862, “PubChem BioAssay data set” (2004)
